Assay results published in ChEMBL document CHEMBL1149222, “Synthesis and in vitro antimycobacterial activity of novel 3-(1H-pyrrol-1-yl)-2-oxazolidinone analogues of PNU-100480” (2004).
≈ marks a conversion by molar mass, not a printed value.

How the values were obtained:
Format in all cases: functional
[1] = test system: Mycobacterium tuberculosis; assay: In vitro anti-mycobacterial activity against streptomycin resistant Mycobacterium tuberculosis ATCC 35820 was determined
[2] = test system: Mycobacterium tuberculosis; assay: In vitro anti-mycobacterial activity against pirazynamide resistant Mycobacterium tuberculosis ATCC 35828 was determined
[3] = test system: Mycobacterium tuberculosis; assay: In vitro anti-mycobacterial activity against pirazynamide resistant Mycobacterium tuberculosis ATCC 35828 determined by the MTT method
[4] = test system: Mycobacterium tuberculosis; assay: In vitro anti-mycobacterial activity against streptomycin resistant Mycobacterium tuberculosis ATCC 35820 determined by the MTT method
[5] = test system: Mycobacterium tuberculosis; assay: In vitro anti-mycobacterial activity against ethambutol resistant Mycobacterium tuberculosis ATCC 35837 was determined
[6] = test system: Mycobacterium tuberculosis; assay: In vitro anti-mycobacterial activity against ethambutol resistant Mycobacterium tuberculosis ATCC 35837 determined by the MTT method

SMILES	MIC50 [1] [µM]	MIC50 [2] [µM]	MIC90 [3] [µM]	MIC90 [4] [µM]	MIC50 [5] [µM]	MIC90 [6] [µM]
CC(=O)NC[C@H]1CN(c2ccn(-c3cccc(F)c3)c2)C(=O)O1	0.9 (≈ 0.286 µg/mL)	18.4 (≈ 5.84 µg/mL)	63.9 (≈ 20.3 µg/mL)	> 100	7 (≈ 2.22 µg/mL)	24.9 (≈ 7.9 µg/mL)
CC(=O)NC[C@H]1CN(c2ccn(-c3ccccc3)c2)C(=O)O1	5.6 (≈ 1.68 µg/mL)	50.3 (≈ 15.1 µg/mL)	> 100	≥ 100	23.8 (≈ 7.12 µg/mL)	100 (≈ 29.9 µg/mL)
CC(=O)NC[C@H]1CN(c2ccn(N3CCOCC3)c2)C(=O)O1	> 100	> 100			> 100	
CC(=O)NC[C@H]1CN(c2ccn(-c3ccccc3F)c2)C(=O)O1	1.1 (≈ 0.349 µg/mL)	10 (≈ 3.17 µg/mL)	58.7 (≈ 18.6 µg/mL)	45 (≈ 14.3 µg/mL)	7 (≈ 2.22 µg/mL)	23.9 (≈ 7.58 µg/mL)
CC(=O)NC[C@H]1CN(c2ccn(-c3ccc(N4CCOCC4)c(F)c3)c2)C(=O)O1	4.9 (≈ 1.97 µg/mL)	> 100	> 100	> 100	63.5 (≈ 25.6 µg/mL)	
CC(=O)NC[C@H]1CN(c2ccn(-c3ccc(F)cc3)c2)C(=O)O1	0.8 (≈ 0.254 µg/mL)	21.5 (≈ 6.82 µg/mL)	73.7 (≈ 23.4 µg/mL)	39.9 (≈ 12.7 µg/mL)	13.5 (≈ 4.28 µg/mL)	56.6 (≈ 18 µg/mL)
NNC(=O)c1ccncc1 [ISONIAZID]	1.3 (≈ 0.178 µg/mL)	0.1 (≈ 0.0137 µg/mL)	> 100	> 100	0.2 (≈ 0.0274 µg/mL)	13 (≈ 1.78 µg/mL)
CC(=O)NC[C@H]1CN(c2ccc(N3CCSCC3)c(F)c2)C(=O)O1 [SUTEZOLID]	5.6 (≈ 1.98 µg/mL)	0.1 (≈ 0.0353 µg/mL)	0.7 (≈ 0.247 µg/mL)	0.4 (≈ 0.141 µg/mL)	0.06 (≈ 0.0212 µg/mL)	0.3 (≈ 0.106 µg/mL)
